Assay results from patent publication US20210277246A1, “PROBE FOR DETECTING CARBAPENEM-RESISTANT BACTERIA AND USE THEREOF” (priority 2018, published 2021).

What was measured:
Escherichia coli (OXA) = assay: MIC of carbapenems for isolates; format: cell-based; settings: 3 isolates
Klebsiella oxytoca (VIM) = assay: MIC of carbapenems for isolates; format: cell-based; settings: 1 isolate
[1] = test system: Enterobacter amnigenus (non-CP-CRE); assay: MIC of carbapenems for isolates; format: cell-based; settings: Lelliottia amnigena, 4 isolates
[2] = test system: Citrobacter freundii (OXA); assay: MIC of carbapenems for isolates; format: cell-based; settings: 1 isolate
Escherichia coli (NDM) = assay: MIC of carbapenems for isolates; format: cell-based; settings: 4 isolates
[3] = test system: Klebsiella pneumoniae (OXA); assay: MIC of carbapenems for isolates; format: cell-based; settings: 2 isolates
[4] = test system: Klebsiella aerogenes (KPC); assay: MIC of carbapenems for isolates; format: cell-based; settings: 1 isolate
[5] = test system: Klebsiella pneumoniae (VIM); assay: MIC of carbapenems for isolates; format: cell-based; settings: 1 isolate
Klebsiella oxytoca (KPC) = assay: MIC of carbapenems for isolates; format: cell-based; settings: 1 isolate
[6] = test system: Klebsiella pneumoniae (ESBL-producer, CTX-M); assay: MIC of carbapenems for isolates; format: cell-based; settings: 24 isolates
[7] = test system: Citrobacter freundii (KPC); assay: MIC of carbapenems for isolates; format: cell-based; settings: 1 isolate
[8] = test system: Enterobacter cloacae (VIM); assay: MIC of carbapenems for isolates; format: cell-based; settings: 1 isolate
[9] = test system: Enterobacter cloacae (NDM); assay: MIC of carbapenems for isolates; format: cell-based; settings: 2 isolates
[10] = test system: Escherichia coli (non-producer); assay: MIC of carbapenems for isolates; format: cell-based; settings: 32 isolates
[11] = test system: Klebsiella pneumoniae (non-producer); assay: MIC of carbapenems for isolates; format: cell-based; settings: 21 isolates
[12] = test system: Klebsiella pneumoniae (NDM/OXA); assay: MIC of carbapenems for isolates; format: cell-based; settings: NDM/OXA co-producing, 1 isolate
Escherichia coli (IMP) = assay: MIC of carbapenems for isolates; format: cell-based; settings: 1 isolate
[13] = test system: Escherichia coli (non-CP-CRE); assay: MIC of carbapenems for isolates; format: cell-based; settings: 8 isolates
[14] = test system: Klebsiella pneumoniae (non-CP-CRE); assay: MIC of carbapenems for isolates; format: cell-based; settings: 22 isolates
Escherichia coli (KPC) = assay: MIC of carbapenems for isolates; format: cell-based; settings: 3 isolates
[15] = test system: Klebsiella pneumoniae (GES); assay: MIC of carbapenems for isolates; format: cell-based; settings: 1 isolate
[16] = test system: Klebsiella pneumoniae (NDM); assay: MIC of carbapenems for isolates; format: cell-based; settings: 1 isolate
[17] = test system: Klebsiella aerogenes (non-CP-CRE); assay: MIC of carbapenems for isolates; format: cell-based; settings: 3 isolates
[18] = test system: Citrobacter freundii (non-CP-CRE); assay: MIC of carbapenems for isolates; format: cell-based; settings: 1 isolate
[19] = test system: Citrobacter freundii (NDM); assay: MIC of carbapenems for isolates; format: cell-based; settings: 1 isolate
[20] = test system: Morganella morganii (NDM); assay: MIC of carbapenems for isolates; format: cell-based; settings: 1 isolate
[21] = test system: non-CPE (negative bacteria); assay: Fluorogenic assay (OMCL01203 probe), all non-CPE of Table 2; format: biochemical
Experimental: (§1) Briefly, 10 μL of a sample was lysed with a Tris-HCl buffer (B-PER, Thermo Scientific Pierce) and then vortexed for 1 minute. After culturing for 30 minutes at room temperature and centrifuging for 5 minutes (10,000 g), 30 μL of the supernatant was reacted with 100 μL of PBS and 13 μL of the fluorescent probe (1 mM). Then, fluorescence was measured for 50 minutes with 5-minute intervals using a fluorescence plate reader (Infinite F200pro, Tecan Group Ltd.).
(§2) In addition, the detection efficiency of the fluorescence detection method using the OMCL01203 probe was compared for carbapenemase-producing carbapenem-resistant bacteria (CP-CRE) and non-carbapenemase-producing carbapenem-resistant bacteria (non-CP-CRE) with mCIM, CarbaNP and CIT methods.

KPC [22] = assay: Fluorescent probe detection in lysed clinical isolates; format: biochemical, Enterobacteriaceae; settings: Ambler class A, 33 isolates
Experimental: (§3) The detection efficiency of carbapenemase-producing carbapenem-resistant bacteria of a control probe OMCL01201 (CPC-1 described in Chinese Patent Publication No. CN106279178A) and the OMCL01203 probe of the present disclosure was evaluated at Gangnam St. Mary's Hospital for the bacteria described in Table 1.
as §1

NDM/OXA [23] = assay: as above; format: biochemical, Enterobacteriaceae; settings: NDM/OXA co-producing; 1 isolate
Experimental: as §3, §1

IMP [24] = assay: as above; format: biochemical, Enterobacteriaceae; settings: Ambler class B, 1 isolate
Experimental: as §3, §1

NDM [25] = assay: as above; format: biochemical, Enterobacteriaceae; settings: Ambler class B, 9 isolates
Experimental: as §3, §1

VIM [26] = assay: as above; format: biochemical, Enterobacteriaceae; settings: Ambler class B, 7 isolates
Experimental: as §3, §1

OXA [27] = assay: as above; format: biochemical, Enterobacteriaceae; settings: Ambler class D, 6 isolates
Experimental: as §3, §1

GES [28] = assay: as above; format: biochemical, Enterobacteriaceae; settings: Ambler class A, 2 isolates
Experimental: as §3, §1

KPC/OXA [29] = assay: as above; format: biochemical, Enterobacteriaceae; settings: KPC/OXA co-producing; 2 isolates
Experimental: as §3, §1

[30] = test system: CPE (carbapenemase-producing Enterobacteriaceae); assay: as above; format: biochemical; settings: CPE total; 61 isolates
Experimental: as §3, §1

Non-CP CRE = assay: as above; format: biochemical
Experimental: as §3, §1

KPC [31] = assay: Fluorogenic assay (OMCL01203 probe); format: biochemical; parameters: key: Pos, positive; Neg, negative
Experimental: as §1, §2

NDM/OXA [32] = assay: Fluorogenic assay (OMCL01203 probe); format: biochemical; parameters: key: Pos, positive; Neg, negative; settings: NDM/OXA co-producing; Klebsiella pneumoniae; 1 isolate
Experimental: as §1, §2

IMP [33] = assay: Fluorogenic assay (OMCL01203 probe); format: biochemical; parameters: key: Pos, positive; Neg, negative; settings: Escherichia coli, 1 isolate
Experimental: as §1, §2

NDM [34] = assay: Fluorogenic assay (OMCL01203 probe); format: biochemical; parameters: key: Pos, positive; Neg, negative
Experimental: as §1, §2

VIM [35] = assay: Fluorogenic assay (OMCL01203 probe); format: biochemical; parameters: key: Pos, positive; Neg, negative
Experimental: as §1, §2

non-producer = assay: Fluorogenic assay (OMCL01203 probe); format: biochemical; parameters: key: Pos, positive; Neg, negative
Experimental: as §1, §2

OXA [36] = assay: Fluorogenic assay (OMCL01203 probe); format: biochemical; parameters: key: Pos, positive; Neg, negative
Experimental: as §1, §2

non-CP-CRE = assay: Fluorogenic assay (OMCL01203 probe); format: biochemical; parameters: key: Pos, positive; Neg, negative
Experimental: as §1, §2

GES [37] = assay: Fluorogenic assay (OMCL01203 probe); format: biochemical; parameters: key: Pos, positive; Neg, negative; settings: Escherichia coli, 2 isolates
Experimental: as §1, §2

CTX-M (ESBL-producer) = assay: Fluorogenic assay (OMCL01203 probe); format: biochemical; parameters: key: Pos, positive; Neg, negative
Experimental: as §1, §2

KPC/OXA [38] = assay: Fluorogenic assay (OMCL01203 probe); format: biochemical; parameters: key: Pos, positive; Neg, negative; settings: KPC/OXA co-producing; Klebsiella pneumoniae; 2 isolates
Experimental: as §1, §2

OXA [39] = assay: Fluorogenic assay (OMCL01203 probe); format: biochemical; settings: Escherichia coli, 3 isolates, number of isolates in brackets
Experimental: as §1, §2

GES [40] = assay: Fluorogenic assay (OMCL01203 probe); format: biochemical; settings: Klebsiella pneumoniae, 1 isolate
Experimental: as §1, §2

[41] = Citrobacter freundii, 1 isolate
[42] = Klebsiella pneumoniae, 1 isolate

## C[C@@H](O)[C@H]1C(=O)N2C(C(=O)O)=C(S[C@@H]3CN[C@H](C(=O)N(C)C)C3)[C@H](C)[C@H]12 [MEM, meropenem]
Escherichia coli (OXA)
  MIC: 0.25 to 4 µg/mL
Klebsiella oxytoca (VIM)
  MIC: 1 µg/mL
[1]
  MIC: 2 to 8 µg/mL
[2]
  MIC: 0.5 µg/mL
Escherichia coli (NDM)
  MIC: > 16 µg/mL
[3]
  MIC: 0.5 to 16 µg/mL
[4]
  MIC: 16 µg/mL
[5]
  MIC: > 16 µg/mL
Klebsiella oxytoca (KPC)
  MIC: > 16 µg/mL
[6]
  MIC: ≤ 0.25 µg/mL
[7]
  MIC: 8 µg/mL
[8]
  MIC: 2 µg/mL
[9]
  MIC: > 16 µg/mL
[10]
  MIC: ≤ 0.25 µg/mL
[11]
  MIC: ≤ 0.25 µg/mL
[12]
  MIC: 4 µg/mL
Escherichia coli (IMP)
  MIC: 1 µg/mL
[13]
  MIC: 0.25 to 8 µg/mL
[14]
  MIC: 0.5 to 8 µg/mL
Escherichia coli (KPC)
  MIC: 4 µg/mL
[15]
  MIC: > 16 µg/mL
[16]
  MIC: > 16 µg/mL
[17]
  MIC: 0.5 to 16 µg/mL
[18]
  MIC: 0.5 µg/mL
[19]
  MIC: 16 µg/mL
[20]
  MIC: 4 µg/mL

## C[C@@H](O)[C@H]1C(=O)N2C(C(=O)O)=C(COc3ccc(COc4ccc5ccc(=O)oc5c4)cc3)[C@H](C)[C@H]12 [OMCL01203]
[21]
  determination of negative bacteria: negative
KPC [22]
  Pos. %: 100%
  result(s) (isolates determined positive): 33
NDM/OXA [23]
  Pos. %: 100%
  result(s) (isolates determined positive): 1
IMP [24]
  Pos. %: 100%
  result(s) (isolates determined positive): 1
NDM [25]
  Pos. %: 89%
  result(s) (isolates determined positive): 8
VIM [26]
  Pos. %: 100%
  result(s) (isolates determined positive): 7
OXA [27]
  Pos. %: 83%
  result(s) (isolates determined positive): 5
GES [28]
  Pos. %: 100%
  result(s) (isolates determined positive): 2
KPC/OXA [29]
  Pos. %: 100%
  result(s) (isolates determined positive): 2
[30]
  Pos. %: 97%
  result(s) (isolates determined positive): 59
Non-CP CRE; Non-CP CRE, 40 isolates
  Pos. %: 0%
  result(s) (isolates determined positive): 0
Non-CP CRE; all 40 non-CPE species
  determination of non-CPE species: negative
KPC [31]; [41]
  Fluore result: Pos
KPC [31]; Escherichia coli, 3 isolates
  Fluore result: Pos
KPC [31]; Klebsiella aerogenes, 1 isolate
  Fluore result: Pos
KPC [31]; Klebsiella oxytoca, 1 isolate
  Fluore result: Pos
KPC [31]; Klebsiella pneumoniae, 30 isolates
  Fluore result: Pos
NDM/OXA [32]
  Fluore result: Pos
IMP [33]
  Fluore result: Pos
NDM [34]; [41]
  Fluore result: Pos
NDM [34]; Enterobacter cloacae, 2 isolates
  Fluore result: Pos
NDM [34]; Escherichia coli, 4 isolates
  Fluore result: Pos
NDM [34]; [42]
  Fluore result: Pos
NDM [34]; Morganella morganii, 1 isolate
  Fluore result: Pos
VIM [35]; Citrobacter freundii, 4 isolates
  Fluore result: Pos
VIM [35]; Enterobacter cloacae, 1 isolate
  Fluore result: Pos
VIM [35]; Klebsiella oxytoca, 1 isolate
  Fluore result: Pos
VIM [35]; [42]
  Fluore result: Pos
non-producer; Escherichia coli, 32 isolates
  Fluore result: Neg
non-producer; Klebsiella pneumoniae, 21 isolates
  Fluore result: Neg
OXA [36]; [41]
  Fluore result: Pos
OXA [36]; Klebsiella pneumoniae, 2 isolates
  Fluore result: Pos
non-CP-CRE; [41]
  Fluore result: Neg
non-CP-CRE; Enterobacter amnigenus, 4 isolates
  Fluore result: Neg
non-CP-CRE; Enterobacter cloacae, 10 isolates
  Fluore result: Neg
non-CP-CRE; Escherichia coli, 8 isolates
  Fluore result: Neg
non-CP-CRE; Klebsiella aerogenes, 3 isolates
  Fluore result: Neg
non-CP-CRE; Klebsiella pneumoniae, 22 isolates
  Fluore result: Neg
GES [37]
  Fluore result: Pos
CTX-M (ESBL-producer); Escherichia coli, 29 isolates
  Fluore result: Neg
CTX-M (ESBL-producer); Klebsiella pneumoniae, 24 isolates
  Fluore result: Neg
KPC/OXA [38]
  Fluore result: Pos
OXA [39]; isolates testing negative
  Fluore result: Neg(2)
OXA [39]; isolates testing positive
  Fluore result: Pos(1);
GES [40]
  Fluore result: Neg(1)
